The values below come from US5407954A, “Arylalkoxyphenoxy-imidazoline compounds” (Merrell Dow Pharmaceuticals Inc., priority 1994, dated 1995).

What is called IC50 is the concentration that inhibits the measured activity by half. A higher IC50 goes with weaker potency.

Data set [1] deals with T1, cloned rat 5-HT2 receptor (Rattus norvegicus, UniProt P14842).
T1 construct: expressed in transfected cells; host or cells: NIH 3T3 fibroblasts, line 'GF-6'
In words: Affinity for 5-HT2 receptors on transfected fibroblast cell membranes ([125I]LSD competition binding, NIH 3T3 GF-6 cells). Conditions: NIH 3T3 GF-6 cell membranes, 37° C., 60 minutes, pH 7.6. An excerpt:
Affinity for 5-HT2 receptor on transfected fibroblast cell membranes (partial agonist [^125 I]lysergic acid diethylamide; Elliott, M. J., Kent, A., J. Neurochem. 53: 191-196, 1989.; Peroutka, S. J., Snyder, S. H. , Molec. Pharmacol. 16: 687-699, 1979; Kadan, J. M., Krohn, A. M., Evans, M. J., Ualtz, R. L., Hartig, P. R.; J. Neurochem. 43: 601-606, 1984) is used to determine the potency of test compounds to compete with [^125 I]LSD binding to a NIH 3T3 cell line containing the cloned rat 5-HT2 receptor designated "GF-6" by its originators.[Julius, D., Huang, K. N., Livelli, T. J., Axel, R., and Jessell, T. M., Proc. Natl. Acad. Sci. USA 87:928-932, 1990]
Confluent GF6 cell monolayers are dissociated in Versene and centrifuged at 1000 rpm for 5 minutes. The resulting pellet is homogenized in 10 volumes 0.32M sucrose using a Dounce glass homogenizer, 10 strokes. The suspension is centrifuged at 44,000×g for 15 minutes, and the pellet suspended in […] Hepes-KOH, pH 7.4, using a Polytron. The membranes are then stored at -80° C.
The assay tubes, in triplicate, receive 20 μl of 5 nM [^125 I]LSD, 20 μl of test compound (10^-9 M to 10^-5 M or 10 μM ketanserin for nonspecific binding), 40 μl of membrane suspension (1-5 μg protein/assay tube) in a final volume of 0.1 ml of 50 mM Tris- HCl, pH 7.6. Incubations are carried out at 37° C. for 60 minutes and terminated by addition of 2 ml ice-cold assay buffer end filtered through GF/B glass fiber filters (presoaked in 0.1% polyethyleneimine). Filters are washed twice with 5 ml of cold buffer and transferred to polystyrene tubes for radioactivity determination. Protein concentration was measured using the Bradford dye binding method.
Inhibition of [^125 I]LSD binding by a test compound is indicative of affinity for the 5HT2 receptor site. The molar concentration of a Compound which causes 50% inhibition of the binding of ligand is the IC50. The IC50 value is converted to the Ki value by the method of Cheng and Prusoff.[Cheng, Y. -C and Prusoff, Biochem. Pharmacol. 22:3099-3108, 1973].

A further data set relates to migraine headaches. Conditions: in vivo; cited from earlier work.
The next data set deals with 5-HT1C receptor. Conditions: albeit nonselective; cited from earlier work.
A further data set relates to migraine. Conditions: in vivo; cited from earlier work.

T1 sequence (P14842 whole entry): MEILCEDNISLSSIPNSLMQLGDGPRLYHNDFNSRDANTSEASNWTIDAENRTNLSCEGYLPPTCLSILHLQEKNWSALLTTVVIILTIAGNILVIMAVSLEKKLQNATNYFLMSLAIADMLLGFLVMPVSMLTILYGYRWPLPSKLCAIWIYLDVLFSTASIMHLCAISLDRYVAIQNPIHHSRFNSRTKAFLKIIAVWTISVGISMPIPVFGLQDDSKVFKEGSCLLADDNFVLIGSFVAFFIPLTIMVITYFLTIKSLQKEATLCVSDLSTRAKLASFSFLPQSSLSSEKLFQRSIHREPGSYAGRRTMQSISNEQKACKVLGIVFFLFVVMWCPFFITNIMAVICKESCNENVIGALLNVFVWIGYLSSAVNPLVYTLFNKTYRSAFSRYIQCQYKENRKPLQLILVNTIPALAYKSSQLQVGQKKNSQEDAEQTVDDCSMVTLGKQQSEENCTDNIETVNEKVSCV

In turn, `COc1ccc(CC(Oc2ccccc2OCc2ccccc2)C2=NCCN2)cc1` (stereo not drawn) [100,499, 2-[1-(2-benzyloxyphenoxy)-2-(4-methoxyphenyl)]ethylimidazoline] gave an IC50 in data set [1] of 3.5 nM.

In data set [1], `c1ccc(COc2ccccc2OC(Cc2ccccc2)C2=NCCN2)cc1` (stereo not drawn) [101,600, 2-[1-(2-benzyloxyphenoxy)-2-phenyl]ethylimidazoline] gave a half-maximal inhibitory concentration (IC50) of 2.5 nM.

With `c1ccc(CCOc2ccccc2OC(Cc2ccccc2)C2=NCCN2)cc1` (stereo not drawn) [101,623, 2-(1-[2-(2-phenylethoxy)phenoxy]-2-phenyl)ethylimidazoline], the 50% inhibitory concentration (IC50) in data set [1] came to 14 nM.

Compound `c1ccc(CCCC(Oc2ccccc2OCc2ccccc2)C2=NCCN2)cc1` (stereo not drawn) [102,588, 2-[1-(2-benzyloxyphenoxy)-4-phenyl]butylimidazoline] came in with an IC50 in data set [1] of 167 nM.

In the case of `Clc1cccc(N2CCNCC2)c1` [m-chlorophenylpiperazine], the inducing migraine headaches entry in the data set on migraine headaches is “capable of inducing migraine headaches”.

With `CC[C@@H](CO)NC(=O)[C@@H]1C=C2c3cccc4c3c(cn4C)C[C@H]2N(C)C1` [methysergide], the “5-HT1C receptor antagonist activities” value with 5-HT1C receptor was “potent 5-HT1C receptor antagonist activities (albeit nonselective)”. In addition, in the data set on migraine, the migraine prophylactic effectiveness result is given as “well established as effective migraine prophylactic agents”.

In the case of `CN1CCC(=C2c3ccccc3CCc3sccc32)CC1` [pizotifen], the “5-HT1C receptor antagonist activities” value in the data set on 5-HT1C receptor is on record as “potent 5-HT1C receptor antagonist activities (albeit nonselective)”. For the same compound, the migraine prophylactic effectiveness result in the data set on migraine is listed as “well established as effective migraine prophylactic agents”.
